Experimental data published in ChEMBL document CHEMBL1142203, “Antiviral activities of novel 5-phosphono-pent-2-en-1-yl nucleosides and their alkoxyalkyl phosphonoesters” (Antimicrob Agents Chemother, 2007).

Tests used:
[1] = tested on: Human betaherpesvirus 5; assay: Antiviral activity against HCMV AD169 in HFF cells by plaque reduction assay; type: functional, organism-based; settings: Human betaherpesvirus 5, AD169, HFF
[2] = tested on: Human alphaherpesvirus 1; assay: Antiviral activity against HSV1 in MRC5 cells by DNA reduction assay; type: functional, organism-based; settings: Human alphaherpesvirus 1, MRC5
[3] = tested on: Vaccinia virus; assay: Antiviral activity against Vaccinia virus Copenhagen in HFF cells by plaque reduction assay; type: functional, organism-based; settings: Orthopoxvirus vaccinia
[4] = tested on: Cowpox virus; assay: Antiviral activity against Cowpox virus Brighton in HFF cells by plaque reduction assay; type: functional, organism-based
[5] = tested on: Human alphaherpesvirus 3; assay: Antiviral activity against VZV Ellen in HFF cell by CPE assay; type: functional, organism-based; settings: Human alphaherpesvirus 3, Ellen
[6] = Cytotoxicity against HFF cells by neutral red uptake assay; type: cell-based; settings: human
[7] = Cytotoxicity against plated MRC5 cells by neutral red uptake assay; type: cell-based; settings: human
[8] = tested on: Hepatitis B virus; assay: Antiviral activity against HBV in HepG2 2.2.15 cells after 24 hrs by DNA reduction assay; type: functional, organism-based; settings: HepG2, 24 h
[9] = Cytotoxicity against HepG2 2.2.15 cells assessed as inhibition of uptake of neutral red dye after 24 hrs; type: cell-based; settings: human
[10] = Selectivity index, ratio of CC50 for HepG2 2.2.15 cells to EC50 for HBV; type: functional
[11] = tested on: Hepatitis B virus; assay: Antiviral activity against wild type HBV in Huh7 cells after 5 days; type: functional, organism-based; settings: Huh-7, 120 h
[12] = tested on: Hepatitis B virus; assay: Antiviral activity against HBV with lamivudine-resistant polymerase L180M mutant in Huh7 cells after 5 days; type: functional, organism-based; settings: Huh-7, 120 h
[13] = tested on: Hepatitis B virus; assay: Antiviral activity against HBV with lamivudine-resistant polymerase M204V mutant in Huh7 cells after 5 days; type: functional, organism-based; settings: Huh-7, 120 h
[14] = tested on: Hepatitis B virus; assay: Antiviral activity against HBV with lamivudine-resistant polymerase M204I mutant in Huh7 cells after 5 days; type: functional, organism-based; settings: Huh-7, 120 h
[15] = tested on: Hepatitis B virus; assay: Antiviral activity against HBV with lamivudine-resistant polymerase L180M/M204V double mutant in Huh7 cells after 5 days; type: functional, organism-based; settings: Huh-7, 120 h
[16] = tested on: Hepatitis B virus; assay: Antiviral activity against HBV with […]-resistant polymerase N236T mutant in Huh7 cells after 5 days; type: functional, organism-based; settings: Huh-7, 120 h
[17] = Cytotoxicity against Huh7 cells; type: cell-based, Huh-7; settings: human
[18] = tested on: Human immunodeficiency virus 1; assay: Antiviral activity against HIV1 LAI in MT2 cells assessed as inhibition of p24 antigen production; type: functional, organism-based; settings: Human immunodeficiency virus 1, LAI
[19] = Cytotoxicity against MT2 cells after 72 hrs; type: cell-based; settings: human
[20] = tested on: Human gammaherpesvirus 4; assay: Antiviral activity against EBV in Daudi cells by ELISA; type: functional, organism-based; settings: human gammaherpesvirus 4, Daudi
[21] = Cytotoxicity against Daudi cells; type: cell-based; settings: human

Compound	EC50 [1]	EC50 [2]	EC50 [3]	EC50 [4]	EC50 [5]	CC50 [6]	CC50 [7]	EC50 [8]	CC50 at 24 h [9]	Ratio CC50/EC50 [10]	EC50 [11]	EC50 [12]	EC50 [13]	EC50 [14]	EC50 [15]	EC50 [16]	CC50 [17]	EC50 [20]	other results
Nc1ccn(C/C=C\CCP(=O)(O)O)c(=O)n1	> 100 µM	> 30 µM	> 100 µM	> 100 µM	> 60 µM	> 100 µM	> 100 µM	> 30 µM	600 µM										
CCCCCCCCCCCCCCCCOCCCOP(=O)(O)CC/C=C\Cn1cc(C)c(=O)[nH]c1=O	0.66 µM	0.9 µM	> 20 µM	> 20 µM	3 µM	> 100 µM		2 µM	122 µM	61	3 µM	> 100 µM	> 100 µM	> 100 µM	> 100 µM	3.8 µM	120 µM		EC50 [18]: 1 µM; CC50 at 72 h [19]: 1.3 µM
CCCCCCCCCCCCCCCCOCCCOP(=O)(O)CC/C=C\Cn1cnc2c(N)ncnc21	15.7 µM	18 µM	> 30 µM	> 20 µM	> 20 µM	43 µM		1.5 µM	116 µM	77	9.2 µM	15 µM	9 µM	7.7 µM	8.1 µM	10 µM	110 µM	0.1 µM	CC50 [21]: > 100 µM
Cc1cn(C/C=C\CCP(=O)(O)O)c(=O)[nH]c1=O	> 100 µM	> 30 µM	> 100 µM	> 100 µM	> 300 µM	> 100 µM	> 100 µM	> 30 µM	620 µM										
Nc1nc(=O)c2ncn(C/C=C\CCP(=O)(O)O)c2[nH]1	68.4 µM	> 30 µM	> 100 µM	> 100 µM	7.2 µM	> 100 µM	> 100 µM	> 30 µM	610 µM										
O=c1nc(O)ccn1C/C=C\CCP(=O)(O)O	> 100 µM	> 30 µM	> 100 µM	> 100 µM	> 300 µM	> 100 µM	> 100 µM	> 30 µM	712 µM										
Nc1ncnc2c1ncn2C/C=C\CCP(=O)(O)O	> 100 µM	> 30 µM	> 100 µM	> 100 µM	> 300 µM	> 100 µM	> 100 µM	> 30 µM	639 µM									> 4 µM	
CCCCCCCCCCCCCCCCOCCCOP(=O)(O)CC/C=C\Cn1ccc(N)nc1=O	2.9 µM	4.7 µM	> 20 µM	> 20 µM	3.7 µM	56 µM		3.9 µM	621 µM	159	3.4 µM	> 100 µM	> 100 µM	> 100 µM	> 100 µM	4 µM	523 µM		EC50 [18]: 2.5 µM; CC50 at 72 h [19]: 3.3 µM
CCCCCCCCCCCCCCCCOCCCOP(=O)(O)CC/C=C\Cn1cnc2c(=O)nc(N)[nH]c21	1.8 µM	5.8 µM	7.5 µM	11 µM	12.2 µM	> 100 µM		2.4 µM	> 1000 µM	>417	8.8 µM	> 100 µM	16 µM	13 µM	> 100 µM	6.3 µM	929 µM	48 µM	
CCCCCCCCCCCCCCCCOCCCOP(=O)(O)CC/C=C\Cn1ccc(=O)[nH]c1=O	> 20 µM	> 30 µM	> 100 µM	> 100 µM		> 100 µM		> 30 µM	155 µM										
